Measurements taken from ChEMBL document CHEMBL3046000, “Design and synthesis of 1-(benzothiazol-5-yl)-1H-1,2,4-triazol-5-ones as protoporphyrinogen oxidase inhibitors” (Bioorg Med Chem, 2013).
pKi: −log10 of the molar value.

Experiments:
Chenopodium album [1] = assay: Post-emergence herbicidal activity against Chenopodium album seedlings assessed as plant growth inhibition at 75 g ai/ha measured 15 days after compound treatment under greenhouse conditions; type: functional; conditions: 360 h, read-out: GI
Chenopodium album [2] = assay: Post-emergence herbicidal activity against Chenopodium album seedlings assessed as plant growth inhibition at 37.5 g ai/ha measured 15 days after compound treatment under greenhouse conditions; type: functional; conditions: 360 h, read-out: GI
Chenopodium album [3] = assay: Post-emergence herbicidal activity against Chenopodium album seedlings assessed as plant growth inhibition at 150 g ai/ha measured 15 days after compound treatment under greenhouse conditions; type: functional; conditions: 360 h, read-out: GI
Amaranthus retroflexus [4] = assay: Post emergence herbicidal activity against Amaranthus retroflexus seedlings assessed as plant growth inhibition at 75 g ai/ha measured 15 days after compound treatment under greenhouse conditions; type: functional; conditions: 360 h, read-out: GI
Amaranthus retroflexus [5] = assay: Post emergence herbicidal activity against Amaranthus retroflexus seedlings assessed as plant growth inhibition at 37.5 g ai/ha measured 15 days after compound treatment under greenhouse conditions; type: functional; conditions: 360 h, read-out: GI
Amaranthus retroflexus [6] = assay: Post emergence herbicidal activity against Amaranthus retroflexus seedlings assessed as plant growth inhibition at 150 g ai/ha measured 15 days after compound treatment under greenhouse conditions; type: functional; conditions: 360 h, read-out: GI
Brassica juncea [7] = assay: Post-emergence herbicidal activity against Brassica juncea seedlings assessed as plant growth inhibition at 75 g ai/ha measured 15 days after compound treatment under greenhouse conditions; type: functional; conditions: 360 h, read-out: GI
Brassica juncea [8] = assay: Post-emergence herbicidal activity against Brassica juncea seedlings assessed as plant growth inhibition at 37.5 g ai/ha measured 15 days after compound treatment under greenhouse conditions; type: functional; conditions: 360 h, read-out: GI
Brassica juncea [9] = assay: Post-emergence herbicidal activity against Brassica juncea seedlings assessed as plant growth inhibition at 150 g ai/ha measured 15 days after compound treatment under greenhouse conditions; type: functional; conditions: 360 h, read-out: GI
Setaria faberi [10] = assay: Post-emergence herbicidal activity against Setaria faberi (Giant Foxtail) seedlings assessed as plant growth inhibition at 75 g ai/ha measured 15 days after compound treatment under greenhouse conditions; type: functional; conditions: 360 h, read-out: GI
Setaria faberi [11] = assay: Post-emergence herbicidal activity against Setaria faberi (Giant Foxtail) seedlings assessed as plant growth inhibition at 37.5 g ai/ha measured 15 days after compound treatment under greenhouse conditions; type: functional; conditions: 360 h, read-out: GI
Setaria faberi [12] = assay: Post-emergence herbicidal activity against Setaria faberi (Giant Foxtail) seedlings assessed as plant growth inhibition at 150 g ai/ha measured 15 days after compound treatment under greenhouse conditions; type: functional; conditions: 360 h, read-out: GI
Digitaria sanguinalis [13] = assay: Post-emergence herbicidal activity against Digitaria sanguinalis (hairy crabgrass) seedlings assessed as plant growth inhibition at 75 g ai/ha measured 15 days after compound treatment under greenhouse conditions; type: functional; conditions: 360 h, read-out: GI
Digitaria sanguinalis [14] = assay: Post-emergence herbicidal activity against Digitaria sanguinalis (hairy crabgrass) seedlings assessed as plant growth inhibition at 37.5 g ai/ha measured 15 days after compound treatment under greenhouse conditions; type: functional; conditions: 360 h, read-out: GI
Digitaria sanguinalis [15] = assay: Post-emergence herbicidal activity against Digitaria sanguinalis (hairy crabgrass) seedlings assessed as plant growth inhibition at 150 g ai/ha measured 15 days after compound treatment under greenhouse conditions; type: functional; conditions: 360 h, read-out: GI
Echinochloa crus-galli [16] = assay: Post emergence herbicidal activity against Echinochloa crus-galli (barnyard grass) seedlings assessed as plant growth inhibition at 75 g ai/ha measured 15 days after compound treatment under greenhouse conditions; type: functional; conditions: 360 h, read-out: GI
Echinochloa crus-galli [17] = assay: Post emergence herbicidal activity against Echinochloa crus-galli (barnyard grass) seedlings assessed as plant growth inhibition at 37.5 g ai/ha measured 15 days after compound treatment under greenhouse conditions; type: functional; conditions: 360 h, read-out: GI
Echinochloa crus-galli [18] = assay: Post emergence herbicidal activity against Echinochloa crus-galli (barnyard grass) seedlings assessed as plant growth inhibition at 150 g ai/ha measured 15 days after compound treatment under greenhouse conditions; type: functional; conditions: 360 h, read-out: GI
[19] = target: T1, Protoporphyrinogen oxidase, chloroplastic (Nicotiana tabacum, UniProt O24163); assay: Inhibition of Nicotiana tabacum (tobacco) recombinant PPO assessed as protoporphyrin IX formation at room temperature by fluorimetric assay
T1 sequence (O24163 whole entry): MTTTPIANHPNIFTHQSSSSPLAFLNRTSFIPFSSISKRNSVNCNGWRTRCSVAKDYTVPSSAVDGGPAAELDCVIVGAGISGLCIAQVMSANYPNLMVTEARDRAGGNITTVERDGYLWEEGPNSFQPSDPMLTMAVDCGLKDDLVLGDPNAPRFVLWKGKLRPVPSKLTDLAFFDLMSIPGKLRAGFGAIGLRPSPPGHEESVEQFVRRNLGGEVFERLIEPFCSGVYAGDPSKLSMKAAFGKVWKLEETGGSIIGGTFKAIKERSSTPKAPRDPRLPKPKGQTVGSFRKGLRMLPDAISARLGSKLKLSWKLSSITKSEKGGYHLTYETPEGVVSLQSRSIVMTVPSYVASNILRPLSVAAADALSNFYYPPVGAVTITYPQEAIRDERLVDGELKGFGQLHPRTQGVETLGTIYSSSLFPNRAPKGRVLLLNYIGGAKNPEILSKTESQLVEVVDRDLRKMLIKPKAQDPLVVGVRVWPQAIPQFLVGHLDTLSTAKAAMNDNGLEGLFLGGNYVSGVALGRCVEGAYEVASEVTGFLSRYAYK

Row | Compound | inhibition of growth at 75 g/ha (Chenopodium album [1]) [%] | inhibition of growth at 37.5 g/ha (Chenopodium album [2]) [%] | inhibition of growth at 150 g/ha (Chenopodium album [3]) [%] | inhibition of growth at 75 g/ha (Amaranthus retroflexus [4]) [%] | inhibition of growth at 37.5 g/ha (Amaranthus retroflexus [5]) [%] | inhibition of growth at 150 g/ha (Amaranthus retroflexus [6]) [%] | inhibition of growth at 75 g/ha (Brassica juncea [7]) [%] | inhibition of growth at 37.5 g/ha (Brassica juncea [8]) [%] | inhibition of growth at 150 g/ha (Brassica juncea [9]) [%] | inhibition of growth at 75 g/ha (Setaria faberi [10]) [%] | inhibition of growth at 37.5 g/ha (Setaria faberi [11]) [%] | inhibition of growth at 150 g/ha (Setaria faberi [12]) [%] | inhibition of growth at 75 g/ha (Digitaria sanguinalis [13]) [%] | inhibition of growth at 37.5 g/ha (Digitaria sanguinalis [14]) [%] | inhibition of growth at 150 g/ha (Digitaria sanguinalis [15]) [%] | inhibition of growth at 75 g/ha (Echinochloa crus-galli [16]) [%] | inhibition of growth at 37.5 g/ha (Echinochloa crus-galli [17]) [%] | inhibition of growth at 150 g/ha (Echinochloa crus-galli [18]) [%] | pKi [19]
1 | Cc1nn(-c2cc3nc(SC(C)C(=O)O)sc3cc2F)c(=O)n1C(F)F (stereo not drawn) | ≥ 90 | 50 | ≥ 90 | ≥ 90 | ≥ 90 | ≥ 90 | ≥ 90 | ≥ 90 | ≥ 90 | 60 | 60 | ≥ 90 | < 50 | < 50 | ≥ 90 | 60 | 60 | ≥ 90 | 5.92
2 | CCOC(=O)Sc1nc2cc(-n3nc(C)n(C(F)F)c3=O)c(F)cc2s1 | 60 | < 50 | ≥ 90 | < 50 | < 50 | ≥ 90 | < 50 | < 50 | ≥ 90 | < 50 | < 50 | < 50 | < 50 | < 50 | 50 | < 50 | < 50 | 50 | 6.24
3 | Cc1nn(-c2cc3nc(SCC(=O)O)sc3cc2Cl)c(=O)n1C(F)F | ≥ 90 | 80 | ≥ 90 | ≥ 90 | 50 | ≥ 90 | ≥ 90 | 60 | ≥ 90 | < 50 | < 50 | ≥ 90 | < 50 | < 50 | ≥ 90 | < 50 | < 50 | ≥ 90 | 4.99
4 | CCOC(=O)CSc1nc2cc(-n3nc(C)n(C(F)F)c3=O)c(Br)cc2s1 | ≥ 90 | ≥ 90 | ≥ 90 | ≥ 90 | ≥ 90 | ≥ 90 | 80 | 80 | ≥ 90 | 60 | 50 | 80 | 60 | 50 | 80 | 60 | 50 | 50 | 5.10
5 | Cc1nn(-c2cc3nc(SCC(=O)O)sc3cc2F)c(=O)n1C(F)F | 80 | 80 | ≥ 90 | ≥ 90 | ≥ 90 | ≥ 90 | 80 | < 50 | ≥ 90 | 50 | 50 | ≥ 90 | < 50 | < 50 | ≥ 90 | 50 | 50 | ≥ 90 | 5.82
6 | Cc1nn(-c2cc3nc(SCCC(=O)O)sc3cc2Cl)c(=O)n1C(F)F | < 50 | < 50 | ≥ 90 | < 50 | < 50 | ≥ 90 | 60 | 50 | ≥ 90 | 60 | 60 | < 50 | < 50 | < 50 | < 50 | 50 | 50 | < 50 | 4.75
7 | Cc1nn(-c2cc3nc(SCCC(=O)O)sc3cc2F)c(=O)n1C(F)F | ≥ 90 | 80 | ≥ 90 | ≥ 90 | 60 | ≥ 90 | ≥ 90 | 60 | ≥ 90 | 50 | < 50 | < 50 | 50 | < 50 | 50 | < 50 | < 50 | 50 | 5.78
